{"source": "patent US11351142B2", "about": "“Composition and method for treating neuronal ceroid lipofuscinosis” (Rush University Medical Center, priority 2012, dated 2022)", "key": {"[1]": {"tested_on": "TPP1", "experiment": "Immunofluorescence for TPP1 in SH-SY5Y cells", "assay_type": "cell-based, human", "conditions": "25 μM gemfibrozil and 10 μM fenofibrate, 24 hrs", "procedure": "Immunocytochemistry was performed as described earlier (25). Briefly, 8 well chamber slides containing mouse primary astrocytes, mouse neurons, human primary astrocytes or SH-SY5Y cells were cultured to 70-80% confluence were fixed with chilled Methanol (Fisher Scientific, Waltham, Mass.) overnight, followed by two brief rinses with filtered PBS. Samples were blocked with 2% BSA (Fisher Scientific) in PBS containing Tween 20 (Sigma) and Triton X-100 (Sigma) for 30 min and incubated at room temperature under shaking conditions for 2 hr in PBS containing the following anti-mouse primary antibodies: […] Santa Cruz Biotech, Santa Cruz, Calif.), GFAP, (1:100; Santa Cruz), and 3-tubulin (1:5000; Millipore). After four 15 min washes in filtered PBS, the slides were further incubated with Cy2 or Cy5-labeled secondary antibodies (all 1:200; Jackson ImmunoResearch, West Grove, Pa.) for 1 hr under similar shaking conditions. Following four 15 minute washes with filtered PBS, cells were incubated for 4-5 min with 4′, 6-diamidino-2-phenylindole (DAPI, 1:10,000; Sigma). The samples were run in an EtOH and Xylene (Fisher) gradient, mounted and observed under Olympus BX41 fluorescence microscope."}, "[2]": {"tested_on": "primary human neurons", "experiment": "LysoTracker labeling of lysosomes in primary human neurons", "assay_type": "cell-based", "conditions": "25 μM gemfibrozil and 10 μM fenofibrate, 24 hours", "text": "DAPI was used to visualize nuclei. Results represent 3 independent experiments."}, "[3]": {"tested_on": "TPP1", "experiment": "Western blot for TPP1 in mouse primary neurons", "assay_type": "cell-based", "conditions": "neurons from cortex, hippocampus, striatum; 25 μM gemfibrozil, 24 hrs", "procedure": "Fetal (E18-E16) mouse neurons were prepared as previously described (23) with modifications. Whole brains were removed and cortical, hippocampal, striatal and cerebellar fractions were dissected in serum free Neurobasal media. The cells were washed by centrifugation three times at 1200 rpm for 10 min, the pellet dissociated and the cells plated at 10% confluence in 8-well chamber slides pre-treated for >2 hr with Poly-D-Lysine (Sigma, St. Louis, Mo.). After 4 min, the non-adherent cell suspension was aspirated and […] complete Neurobasal media (Invitrogen) supplemented with 2% B27 was added to each well. The cells were incubated for 4 days prior to experimentation. […] The cells were stimulated with gemfibrozil in Neurobasal media supplemented with 2% B27 minus antioxidants (Invitrogen) for 24 hr prior to methanol fixation and immunostaining.\nWestern blotting was conducted as described earlier (27,28) with modifications. Briefly, cells were scraped in double-distilled H20 and sodium dodecyl sulfate (SDS), electrophoresed on NuPAGE® Novex® 4-12% Bis-Tris gels (Invitrogen) and proteins transferred onto a nitrocellulose membrane (Bio-Rad) using the Thermo-Pierce Fast Semi-Dry Blotter. […]\nProtein blots were analyzed using ImageJ (NIH, Bethesda, Md.) and bands were normalized to their respective β-actin loading controls. […]"}}, "data": [{"compound": "Cc1ccc(C)c(OCCCC(C)(C)C(=O)O)c1", "note": "[gemfibrozil]", "values": [{"measurement": "level of TPP1 protein (immunofluorescence)", "setting": "[1]", "result": "considerable increase"}, {"measurement": "lysosomal proliferation (LysoTracker)", "setting": "[2]", "result": "upregulation"}, {"measurement": "increase in TPP1 protein (Western blot, densitometric quantification)", "setting": "[3]", "result": "2-3 fold"}]}]}
